Like-named read-outs stand apart in the source and are kept apart here.
Columns and labels:
[1] = test system: NF-κB pathway (SEAP) in THP1-Dual cells; test: THP-1 Dual cell SEAP assay (L18-MDP stimulated); assay type: cell-based; conditions: Homo sapiens, THP1-Dual, read-out: NFkB THP1 IC50
[2] = biological target: GST-RIPK2 fusion protein (human RIPK2 amino acids 1-310) (Homo sapiens (Human), UniProt O43353); test: RIPK2 binding competition assay (TR-FRET, Tracer 199)
[3] = read-out: RIPK2 IC50, RIPK2 binding competition assay

Chain of GST-RIPK2 fusion protein (human RIPK2 amino acids 1-310) (O43353 1-310): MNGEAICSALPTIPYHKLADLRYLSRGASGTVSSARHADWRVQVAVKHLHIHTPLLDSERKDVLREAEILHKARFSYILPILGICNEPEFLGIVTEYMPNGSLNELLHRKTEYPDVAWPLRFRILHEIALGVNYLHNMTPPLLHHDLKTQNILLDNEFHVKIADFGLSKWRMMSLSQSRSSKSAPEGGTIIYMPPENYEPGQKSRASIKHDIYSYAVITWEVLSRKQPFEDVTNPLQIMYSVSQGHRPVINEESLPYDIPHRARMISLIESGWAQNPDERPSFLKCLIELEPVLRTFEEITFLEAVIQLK

Row | SMILES | IC50 [1] [nM] | IC50 [2] [nM] | IC50 [2, 3] [nM]
1 | COc1cc2ncc(-c3cc(F)nc(NC[C@H]4CCNC(=O)C4)c3)n2cc1S(=O)(=O)C(C)(C)C (single isomer, unassigned) [Example 239, (4R or S)-4-[({6-fluoro-4-[7-methoxy-6-(2-methylpropane-2-sulfonyl)imidazo[1,2-a]pyridin-3-yl]pyridin-2-yl}amino)methyl]pi peridin-2-one] | < 50 | < 1 | –
2 | COc1cc2ncc(-c3cc(F)nc(NCC[C@H]4CNC(=O)C4)c3)n2cc1S(=O)(=O)C(C)(C)C (single isomer, unassigned) [Example 240, (4R or S)-4-[2-({6-fluoro-4-[7-methoxy-6-(2-methylpropane-2-sulfonyl)imidazo[1,2-a]pyridin-3-yl]pyridin-2-yl}amino)ethyl] pyrrolidin-2-one] | < 50 | < 1 | –
3 | COc1cc2ncc(-c3cc(F)nc(NCC[C@@H]4CNC(=O)C4)c3)n2cc1S(=O)(=O)C(C)(C)C (single isomer, unassigned) [Example 241, (4R or S)-4-[2-({6-fluoro-4-[7-methoxy-6-(2-methylpropane-2-sulfonyl)imidazo[1,2-a]pyridin-3-yl]pyridin-2-yl}amino)ethyl] pyrrolidin-2-one] | < 50 | < 1 | –
4 | COc1cc2ncc(-c3cc(F)nc(N[C@@H]4CCCC[C@H]4O)c3)n2cc1S(=O)(=O)C(C)(C)C (single isomer, unassigned) [Example 244, trans-(15,2S or 1R,2R)-2-({6-fluoro-4-[7-methoxy-6-(2-methylpropane-2-sulfonyl)imidazo[1,2-a]pyridin-3-yl]pyridin-2-yl}amino)cyclohexan-1-ol] | 250 to 1000 | 2.5 to 20 | –
5 | COc1cc2ncc(-c3cc(F)nc(N[C@H]4CCCC[C@@H]4O)c3)n2cc1S(=O)(=O)C(C)(C)C (single isomer, unassigned) [Example 245, trans-(15,2S or 1R,2R)-2-({6-fluoro-4-[7-methoxy-6-(2-methylpropane-2-sulfonyl)imidazo[1,2-a]pyridin-3-yl]pyridin-2-yl}amino)cyclohexan-1-ol] | 250 to 1000 | 2.5 to 20 | –
6 | CC(C)(C)S(=O)(=O)c1ccc2ncc(-c3cc(F)nc(F)c3)n2c1 [Example 1, 6-(tert-butylsulfonyl)-3-(2,6-difluoropyridin-4-yl)imidazo[1,2-a]pyridine] | > 1000 | – | > 20
7 | COc1cc2ncc(-c3cc(N)c(OC)c(F)c3)n2cc1S(=O)(=O)C(C)(C)C [Example 2, 5-(6-(tert-butylsulfonyl)-7-methoxyimidazo[1,2-a]pyridin-3-yl)-3-fluoro-2-methoxyaniline] | > 1000 | 2.5 to 20 | –
8 | COc1cc2ncc(-c3cc(F)c(C#N)c(F)c3)n2cc1S(=O)(=O)C(C)(C)C [Example 3, 4-(6-(tert-butylsulfonyl)-7-methoxyimidazo[1,2-a]pyridin-3-yl)-2,6-difluorobenzonitrile] | > 1000 | – | > 20
9 | COc1cc2ncc(-c3cn[nH]c3)n2cc1S(=O)(=O)C(C)(C)C [Example 4, 6-(tert-butylsulfonyl)-7-methoxy-3-(1H-pyrazol-4-yl)imidazo[1,2-a]pyridine] | 250 to 1000 | 2.5 to 20 | –
10 | COc1cc2ncc(-c3cc(N)nc(C(F)(F)F)c3)n2cc1S(=O)(=O)C(C)(C)C [Example 6, 4-(6-(tert-butylsulfonyl)-7-methoxyimidazo[1,2-a]pyridin-3-yl)-6-(trifluoromethyl) pyridin-2-amine] | > 1000 | 2.5 to 20 | –
11 | COc1cc2ncc(-c3cc(N)c(=O)n(C)c3)n2cc1S(=O)(=O)C(C)(C)C [Example 7, 3-amino-5-(6-(tert-butylsulfonyl)-7-methoxyimidazo[1,2-a]pyridin-3-yl)-1-methylpyridin-2(1H)-one] | 250 to 1000 | 2.5 to 20 | –
12 | COc1cc2ncc(-c3cc(Cl)nc(Cl)c3)n2cc1S(=O)(=O)C(C)(C)C [Example 8, 6-(tert-butylsulfonyl)-3-(2,6-dichloropyridin-4-yl)-7-methoxyimidazo[1,2-a]pyridine] | > 1000 | – | > 20
13 | COc1cc2ncc(-c3ccc(F)nc3F)n2cc1S(=O)(=O)C(C)(C)C [Example 9, 6-(tert-butylsulfonyl)-3-(2,6-difluoropyridin-3-yl)-7-methoxyimidazo[1,2-a]pyridine] | > 1000 | – | > 20
14 | CCCS(=O)(=O)Nc1cc(-c2cnc3cc(OC)c(S(=O)(=O)C(C)(C)C)cn23)cc(OC)c1OC [Example 10, N-(5-(6-(tert-butylsulfonyl)-7-methoxyimidazo[1,2-a]pyridin-3-yl)-2,3-dimethoxyphenyl) propane-1-sulfonamide] | < 50 | – | < 1
15 | COc1cc2ncc(-c3cc(F)cc([N+](=O)[O-])c3)n2cc1S(=O)(=O)C(C)(C)C [Example 13, 3-(3-fluoro-5-nitrophenyl)-7-methoxy-6-(2-methylpropane-2-sulfonyl)imidazo[1,2-a]pyridine] | > 1000 | > 20 | –
16 | COc1cc2ncc(-c3ccc(N)nc3F)n2cc1S(=O)(=O)C(C)(C)C [Example 14, 5-(6-(tert-butylsulfonyl)-7-methoxyimidazo[1,2-a]pyridin-3-yl)-6-fluoropyridin-2-amine] | > 1000 | – | > 20
17 | COc1cc2ncc(-c3ccc(N)nc3)n2cc1S(=O)(=O)C(C)(C)C [Example 15, 5-(6-(tert-butylsulfonyl)-7-methoxyimidazo[1,2-a]pyridin-3-yl)pyridin-2-amine] | > 1000 | – | > 20
18 | COc1cc2ncc(-c3ccc(N(C)C)nc3)n2cc1S(=O)(=O)C(C)(C)C [Example 16, 5-(6-(tert-butylsulfonyl)-7-methoxyimidazo[1,2-a]pyridin-3-yl)-N,N-dimethylpyridin-2-amine] | > 1000 | – | > 20
19 | COc1cc2ncc(-c3cnc(N)c(OC)c3)n2cc1S(=O)(=O)C(C)(C)C [Example 17, 5-(6-(tert-butylsulfonyl)-7-methoxyimidazo[1,2-a]pyridin-3-yl)-3-methoxypyridin-2-amine] | > 1000 | – | > 20
20 | COc1cc2ncc(-c3ccc(N)cc3)n2cc1S(=O)(=O)C(C)(C)C [Example 18, 4-(6-(tert-butylsulfonyl)-7-methoxyimidazo[1,2-a]pyridin-3-yl)aniline] | > 1000 | – | > 20
21 | COc1cc2ncc(-c3cnc(N)c(C(F)(F)F)c3)n2cc1S(=O)(=O)C(C)(C)C [Example 19, 5-(6-(tert-butylsulfonyl)-7-methoxyimidazo[1,2-a]pyridin-3-yl)-3-(trifluoromethyl)pyridin-2-amine] | > 1000 | – | > 20
22 | COc1cc2ncc(-c3ccc(N)c(F)c3)n2cc1S(=O)(=O)C(C)(C)C [Example 20, 4-(6-(tert-butylsulfonyl)-7-methoxyimidazo[1,2-a]pyridin-3-yl)-2-fluoroaniline] | 250 to 1000 | 2.5 to 20 | –
23 | COc1cc2ncc(-c3cnc(N)cc3F)n2cc1S(=O)(=O)C(C)(C)C [Example 21, 5-(6-(tert-butylsulfonyl)-7-methoxyimidazo[1,2-a]pyridin-3-yl)-4-fluoropyridin-2-amine] | > 1000 | – | > 20
24 | COc1cc2ncc(-c3cnc(N)c(Cl)c3)n2cc1S(=O)(=O)C(C)(C)C [Example 22, 5-(6-(tert-butylsulfonyl)-7-methoxyimidazo[1,2-a]pyridin-3-yl)-3-chloropyridin-2-amine] | > 1000 | 2.5 to 20 | –
